Assay results published in patent US3989466.

Assays:
[1] = not told for nicotinamide; caffeine D in same system by direct partitioning in a separatory funnel with UV absorbance

Row | SMILES | partition coefficient (concentration ratio) (not told) | partition coefficient (concentration ratio) [1]
1 | Oc1ccc(N=Nc2ccccc2)cc1 | ca. 0.50 concentration ratio (mg/ml per mg/ml) | 
2 | NC(=O)c1cccnc1 |  | 0.19 concentration ratio (mg/ml per mg/ml)
3 | CC1(C)Nc2cccc3c(N=Nc4ccc(N=Nc5ccccc5)c5ccccc45)ccc(c23)N1 | ca. 2.0 concentration ratio (mg/ml per mg/ml) | 
